Experiments:
[1] = biological target: D(1A) dopamine receptor (Homo sapiens, UniProt P21728)
[2] = biological target: Vascular endothelial growth factor receptor 2 (Homo sapiens, UniProt P35968); type: functional
[3] = biological target: T1, Prostaglandin G/H synthase 1 (Homo sapiens, UniProt P23219); type: functional
[4] = biological target: T1, Prostaglandin G/H synthase 1; type: functional; remark: listed apart in the source
[5] = biological target: T2, Adenosine receptor A3 (Homo sapiens, UniProt P0DMS8)
T2 sequence (P0DMS8 whole entry): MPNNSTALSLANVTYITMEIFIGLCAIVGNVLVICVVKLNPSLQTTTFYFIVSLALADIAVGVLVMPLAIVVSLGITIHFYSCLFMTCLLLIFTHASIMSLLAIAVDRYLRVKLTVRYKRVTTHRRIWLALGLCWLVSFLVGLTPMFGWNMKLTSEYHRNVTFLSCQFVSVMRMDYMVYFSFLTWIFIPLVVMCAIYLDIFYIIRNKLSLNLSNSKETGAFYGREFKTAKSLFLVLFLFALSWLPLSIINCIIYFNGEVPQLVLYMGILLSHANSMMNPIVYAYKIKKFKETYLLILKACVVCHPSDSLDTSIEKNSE

[6] = biological target: T3, Alpha-2A adrenergic receptor (Homo sapiens, UniProt P08913)
T3 sequence (P08913 whole entry): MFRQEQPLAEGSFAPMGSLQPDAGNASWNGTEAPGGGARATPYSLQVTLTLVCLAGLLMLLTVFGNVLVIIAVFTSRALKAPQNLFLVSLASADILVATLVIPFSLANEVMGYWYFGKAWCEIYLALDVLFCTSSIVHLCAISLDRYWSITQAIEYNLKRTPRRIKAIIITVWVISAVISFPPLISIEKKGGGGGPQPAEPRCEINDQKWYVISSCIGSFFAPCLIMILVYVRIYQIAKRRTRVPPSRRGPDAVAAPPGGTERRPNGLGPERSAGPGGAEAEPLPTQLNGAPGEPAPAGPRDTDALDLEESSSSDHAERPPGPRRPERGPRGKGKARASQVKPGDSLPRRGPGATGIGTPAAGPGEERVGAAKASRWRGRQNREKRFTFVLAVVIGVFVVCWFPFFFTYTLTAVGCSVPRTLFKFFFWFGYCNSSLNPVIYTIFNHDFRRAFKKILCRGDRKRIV

[7] = biological target: T4, Alpha-1A adrenergic receptor (Homo sapiens, UniProt P35348); type: functional, cell-based
T4 sequence (P35348 whole entry): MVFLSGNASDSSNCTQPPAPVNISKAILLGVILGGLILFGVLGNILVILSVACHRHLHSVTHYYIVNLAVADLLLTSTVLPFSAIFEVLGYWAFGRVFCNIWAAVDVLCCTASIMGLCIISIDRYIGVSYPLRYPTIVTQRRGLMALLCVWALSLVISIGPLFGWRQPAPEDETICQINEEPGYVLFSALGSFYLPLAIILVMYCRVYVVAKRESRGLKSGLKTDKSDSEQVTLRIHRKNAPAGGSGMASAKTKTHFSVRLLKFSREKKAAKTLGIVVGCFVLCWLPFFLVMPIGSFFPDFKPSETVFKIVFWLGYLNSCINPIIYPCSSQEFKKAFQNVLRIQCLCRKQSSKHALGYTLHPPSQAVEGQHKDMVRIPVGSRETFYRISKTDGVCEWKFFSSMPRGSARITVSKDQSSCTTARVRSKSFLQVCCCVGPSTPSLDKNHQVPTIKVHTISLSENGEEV

[8] = biological target: Gamma-aminobutyric acid receptor subunit alpha-1/alpha-2/beta-2/gamma-2 (Homo sapiens, UniProt P14867+P18507+P47869+P47870); type: protein-complex assay
[9] = biological target: Histamine H2 receptor (Homo sapiens, UniProt P25021); type: functional, cell-based
[10] = biological target: Voltage-dependent L-type calcium channel subunit alpha-1C (Rattus norvegicus, UniProt P22002); type: functional
[11] = biological target: Cannabinoid receptor 1 (Homo sapiens, UniProt P21554)
[12] = biological target: Vasopressin V1a receptor (Homo sapiens, UniProt P37288)
[13] = biological target: Vasopressin V2 receptor (Homo sapiens, UniProt P30518)
Note: assay procedure not described here.

Sequence of Gamma-aminobutyric acid receptor subunit alpha-1/alpha-2/beta-2/gamma-2 (P14867 whole entry): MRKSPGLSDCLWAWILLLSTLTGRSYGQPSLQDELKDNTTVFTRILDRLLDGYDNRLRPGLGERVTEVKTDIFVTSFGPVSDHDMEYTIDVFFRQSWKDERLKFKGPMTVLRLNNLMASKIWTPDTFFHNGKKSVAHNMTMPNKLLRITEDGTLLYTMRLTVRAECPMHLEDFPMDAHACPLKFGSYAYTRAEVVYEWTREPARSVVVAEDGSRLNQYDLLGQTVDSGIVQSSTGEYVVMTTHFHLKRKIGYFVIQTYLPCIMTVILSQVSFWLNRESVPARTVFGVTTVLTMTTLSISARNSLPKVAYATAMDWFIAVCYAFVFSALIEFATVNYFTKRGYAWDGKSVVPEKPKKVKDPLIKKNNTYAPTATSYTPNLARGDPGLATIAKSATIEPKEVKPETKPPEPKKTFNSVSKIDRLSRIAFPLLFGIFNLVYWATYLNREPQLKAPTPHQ
Sequence of Gamma-aminobutyric acid receptor subunit alpha-1/alpha-2/beta-2/gamma-2 (P47870 whole entry): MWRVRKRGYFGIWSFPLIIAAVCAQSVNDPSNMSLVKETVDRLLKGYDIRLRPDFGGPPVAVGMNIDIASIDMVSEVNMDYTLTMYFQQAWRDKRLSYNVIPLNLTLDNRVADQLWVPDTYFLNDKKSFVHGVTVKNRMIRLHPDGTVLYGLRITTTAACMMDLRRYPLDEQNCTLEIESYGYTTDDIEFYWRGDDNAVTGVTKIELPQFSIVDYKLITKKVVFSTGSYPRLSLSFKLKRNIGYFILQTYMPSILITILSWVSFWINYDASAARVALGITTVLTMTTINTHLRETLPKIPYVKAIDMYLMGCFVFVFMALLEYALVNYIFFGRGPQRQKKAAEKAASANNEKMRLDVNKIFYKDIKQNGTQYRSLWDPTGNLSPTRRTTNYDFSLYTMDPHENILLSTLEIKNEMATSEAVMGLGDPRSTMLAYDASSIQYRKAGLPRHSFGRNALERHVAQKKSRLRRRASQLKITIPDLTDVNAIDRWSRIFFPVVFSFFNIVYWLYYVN
Sequence of Gamma-aminobutyric acid receptor subunit alpha-1/alpha-2/beta-2/gamma-2 (P18507 whole entry): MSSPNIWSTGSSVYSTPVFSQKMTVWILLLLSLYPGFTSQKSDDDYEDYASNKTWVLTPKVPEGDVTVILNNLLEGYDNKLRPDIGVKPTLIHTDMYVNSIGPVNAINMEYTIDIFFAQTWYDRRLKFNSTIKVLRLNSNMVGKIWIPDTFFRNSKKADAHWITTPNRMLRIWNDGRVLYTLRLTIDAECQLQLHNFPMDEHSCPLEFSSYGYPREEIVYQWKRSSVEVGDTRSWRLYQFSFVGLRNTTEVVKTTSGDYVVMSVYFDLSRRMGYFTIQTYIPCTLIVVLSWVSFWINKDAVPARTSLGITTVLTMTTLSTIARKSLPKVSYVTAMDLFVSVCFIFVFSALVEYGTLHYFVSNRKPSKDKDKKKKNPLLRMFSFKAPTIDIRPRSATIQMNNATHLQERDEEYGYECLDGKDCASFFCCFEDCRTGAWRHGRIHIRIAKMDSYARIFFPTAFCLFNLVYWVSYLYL
Sequence of Gamma-aminobutyric acid receptor subunit alpha-1/alpha-2/beta-2/gamma-2 (P47869 whole entry): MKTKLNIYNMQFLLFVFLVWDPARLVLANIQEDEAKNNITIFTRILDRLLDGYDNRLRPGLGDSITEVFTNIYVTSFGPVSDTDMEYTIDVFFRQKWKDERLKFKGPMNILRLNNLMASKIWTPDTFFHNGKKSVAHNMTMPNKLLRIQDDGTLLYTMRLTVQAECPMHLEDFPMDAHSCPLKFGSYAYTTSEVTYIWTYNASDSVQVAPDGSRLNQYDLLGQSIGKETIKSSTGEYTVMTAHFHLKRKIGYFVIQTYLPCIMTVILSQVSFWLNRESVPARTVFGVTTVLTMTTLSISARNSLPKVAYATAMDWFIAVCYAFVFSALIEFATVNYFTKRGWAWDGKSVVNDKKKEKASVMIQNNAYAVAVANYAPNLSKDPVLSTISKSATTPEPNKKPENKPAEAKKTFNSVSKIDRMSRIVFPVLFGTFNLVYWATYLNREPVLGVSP
Sequence of D(1A) dopamine receptor (P21728 whole entry): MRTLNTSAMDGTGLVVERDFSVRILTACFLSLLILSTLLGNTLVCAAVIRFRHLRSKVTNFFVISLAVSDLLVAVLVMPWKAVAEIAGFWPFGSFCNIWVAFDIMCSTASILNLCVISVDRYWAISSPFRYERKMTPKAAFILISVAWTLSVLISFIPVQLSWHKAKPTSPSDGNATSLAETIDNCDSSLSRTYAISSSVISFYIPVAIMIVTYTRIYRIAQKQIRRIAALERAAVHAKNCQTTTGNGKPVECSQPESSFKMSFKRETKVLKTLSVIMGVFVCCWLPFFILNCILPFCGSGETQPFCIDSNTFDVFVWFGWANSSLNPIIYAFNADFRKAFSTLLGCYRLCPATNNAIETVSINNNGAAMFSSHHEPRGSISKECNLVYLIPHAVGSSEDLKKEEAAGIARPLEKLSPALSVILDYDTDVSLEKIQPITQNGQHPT
Sequence of Vascular endothelial growth factor receptor 2 (P35968 whole entry): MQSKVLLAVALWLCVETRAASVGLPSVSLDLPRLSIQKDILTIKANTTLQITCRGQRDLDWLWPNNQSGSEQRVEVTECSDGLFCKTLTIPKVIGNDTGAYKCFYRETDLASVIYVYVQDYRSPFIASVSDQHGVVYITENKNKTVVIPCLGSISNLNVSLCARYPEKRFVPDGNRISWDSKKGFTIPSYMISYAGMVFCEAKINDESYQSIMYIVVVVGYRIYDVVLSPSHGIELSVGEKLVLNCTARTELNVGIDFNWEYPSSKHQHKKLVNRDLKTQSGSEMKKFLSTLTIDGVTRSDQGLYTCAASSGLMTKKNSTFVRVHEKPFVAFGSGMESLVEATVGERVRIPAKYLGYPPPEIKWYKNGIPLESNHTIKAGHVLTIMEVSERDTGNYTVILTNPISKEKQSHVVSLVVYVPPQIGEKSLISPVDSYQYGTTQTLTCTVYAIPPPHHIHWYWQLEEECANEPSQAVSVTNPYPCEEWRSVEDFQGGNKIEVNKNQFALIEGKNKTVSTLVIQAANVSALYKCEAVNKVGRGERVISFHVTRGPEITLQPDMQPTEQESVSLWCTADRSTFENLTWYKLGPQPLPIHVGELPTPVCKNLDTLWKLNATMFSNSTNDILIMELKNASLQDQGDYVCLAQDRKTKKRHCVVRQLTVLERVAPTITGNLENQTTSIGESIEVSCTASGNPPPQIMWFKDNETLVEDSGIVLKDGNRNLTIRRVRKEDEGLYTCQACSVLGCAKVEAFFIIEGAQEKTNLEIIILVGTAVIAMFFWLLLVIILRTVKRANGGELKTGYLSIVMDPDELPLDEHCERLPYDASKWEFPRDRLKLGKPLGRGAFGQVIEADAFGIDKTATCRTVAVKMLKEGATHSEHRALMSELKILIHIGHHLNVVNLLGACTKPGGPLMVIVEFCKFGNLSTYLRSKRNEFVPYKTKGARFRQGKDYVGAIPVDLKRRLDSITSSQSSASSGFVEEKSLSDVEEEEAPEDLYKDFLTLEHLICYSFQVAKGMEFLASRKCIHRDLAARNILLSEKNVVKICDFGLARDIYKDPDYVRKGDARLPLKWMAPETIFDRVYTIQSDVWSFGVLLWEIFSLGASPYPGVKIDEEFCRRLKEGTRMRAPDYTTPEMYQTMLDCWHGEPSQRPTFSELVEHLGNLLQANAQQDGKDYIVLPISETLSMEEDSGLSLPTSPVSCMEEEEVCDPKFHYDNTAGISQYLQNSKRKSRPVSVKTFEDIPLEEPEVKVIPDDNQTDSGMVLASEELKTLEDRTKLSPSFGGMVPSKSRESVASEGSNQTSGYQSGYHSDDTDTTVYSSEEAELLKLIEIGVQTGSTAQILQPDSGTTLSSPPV
T1 sequence (P23219 whole entry): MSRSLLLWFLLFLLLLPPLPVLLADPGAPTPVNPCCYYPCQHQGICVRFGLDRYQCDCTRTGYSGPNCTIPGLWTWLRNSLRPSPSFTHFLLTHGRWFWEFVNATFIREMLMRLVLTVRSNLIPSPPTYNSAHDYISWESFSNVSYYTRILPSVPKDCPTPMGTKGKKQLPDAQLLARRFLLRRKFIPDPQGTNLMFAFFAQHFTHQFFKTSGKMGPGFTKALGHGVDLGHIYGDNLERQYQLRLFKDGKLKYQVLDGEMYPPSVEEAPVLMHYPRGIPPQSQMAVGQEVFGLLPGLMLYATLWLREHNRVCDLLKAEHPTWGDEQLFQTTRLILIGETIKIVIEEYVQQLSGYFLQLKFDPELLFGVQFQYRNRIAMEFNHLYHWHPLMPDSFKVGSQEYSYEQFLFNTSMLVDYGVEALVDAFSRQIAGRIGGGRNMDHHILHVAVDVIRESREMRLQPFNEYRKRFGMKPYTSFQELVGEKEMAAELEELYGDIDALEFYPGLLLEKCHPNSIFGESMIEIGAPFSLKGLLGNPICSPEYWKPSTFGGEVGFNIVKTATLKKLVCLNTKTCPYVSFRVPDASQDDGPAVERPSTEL
Sequence of Histamine H2 receptor (P25021 whole entry): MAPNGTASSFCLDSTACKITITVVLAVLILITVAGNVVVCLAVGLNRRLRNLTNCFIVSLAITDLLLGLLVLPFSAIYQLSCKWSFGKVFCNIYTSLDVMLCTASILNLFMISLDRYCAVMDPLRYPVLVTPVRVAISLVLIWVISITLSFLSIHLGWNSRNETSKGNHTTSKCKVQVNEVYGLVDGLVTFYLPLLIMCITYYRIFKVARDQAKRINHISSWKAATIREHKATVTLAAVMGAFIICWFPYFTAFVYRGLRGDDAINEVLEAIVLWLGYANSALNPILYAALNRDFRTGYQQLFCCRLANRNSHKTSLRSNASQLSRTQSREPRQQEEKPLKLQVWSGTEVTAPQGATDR
Sequence of Vasopressin V2 receptor (P30518 whole entry): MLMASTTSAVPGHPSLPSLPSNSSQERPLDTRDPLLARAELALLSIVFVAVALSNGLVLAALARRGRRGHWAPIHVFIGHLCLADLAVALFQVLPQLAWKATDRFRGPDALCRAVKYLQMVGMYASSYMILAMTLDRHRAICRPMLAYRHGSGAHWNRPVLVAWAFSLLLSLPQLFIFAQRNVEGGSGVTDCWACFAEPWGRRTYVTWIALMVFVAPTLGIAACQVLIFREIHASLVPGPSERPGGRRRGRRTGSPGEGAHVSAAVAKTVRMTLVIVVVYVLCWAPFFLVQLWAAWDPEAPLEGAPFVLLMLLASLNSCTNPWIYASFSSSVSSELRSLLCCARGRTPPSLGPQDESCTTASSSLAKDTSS

Structure (SMILES)	AC50 [1]	AC50 [2]	AC50 [3]	AC50 [4]	AC50 [5]	AC50 [6]	AC50 [7]	AC50 [8]	AC50 [9]	AC50 [10]	AC50 [11]	AC50 [12]	AC50 [13]
O=C1c2c(O)c(=O)ccn2N([C@@H]2c3ccccc3SCc3c2ccc(F)c3F)[C@@H]2COCCN12 [BALOXAVIR]	> 30 µM	> 30 µM	> 30 µM	> 30 µM	> 30 µM	> 30 µM	> 30 µM	–	–	–	–	–	–
CCO/N=C(\C(=O)N[C@@H]1C(=O)N2C(C(=O)[O-])=C(Sc3nc(-c4cc[n+](C)cc4)cs3)CS[C@H]12)c1nsc(N)n1 [CEFTAROLINE]	> 30 µM	> 30 µM	> 30 µM	> 30 µM	> 30 µM	> 30 µM	> 30 µM	> 30 µM	–	–	–	–	–
Cc1cc(O)cc(C)c1Cl [CHLOROXYLENOL]	> 30 µM	> 30 µM	> 30 µM	> 3 µM	> 30 µM	> 30 µM	–	> 30 µM	–	–	–	–	–
CN(C)CCCN1c2ccccc2CCc2ccc(Cl)cc21 [CLOMIPRAMINE]	–	–	–	–	–	3.63 µM	0.0154 µM	> 30 µM	> 30 µM	> 10 µM	> 10 µM	–	–
C[N+](C)(C)CCCCCCCCCC[N+](C)(C)C [DECAMETHONIUM]	> 30 µM	> 30 µM	> 30 µM	> 30 µM	> 30 µM	> 30 µM	> 30 µM	> 30 µM	–	–	–	–	–
O=C1c2ccccc2C(=O)C1C(=O)C(c1ccccc1)c1ccccc1 [DIPHENADIONE]	> 30 µM	> 30 µM	20.4 µM	15.6 µM	0.716 µM	> 30 µM	> 3 µM	–	–	–	–	–	–
CCOC(=O)c1ccc(O)cc1 [ETHYLPARABEN]	> 30 µM	> 30 µM	> 30 µM	> 1 µM	> 30 µM	> 30 µM	> 30 µM	> 30 µM	–	–	–	–	–
O=C1[C@H](CC[C@H](O)c2ccc(F)cc2)[C@@H](c2ccc(O)cc2)N1c1ccc(F)cc1 [EZETIMIBE]	29.4 µM	> 30 µM	6.72 µM	> 30 µM	6.34 µM	> 30 µM	–	> 10 µM	–	–	–	–	–
O=C(COc1ccc(Cl)cc1)N1CCN(Cc2ccc3c(c2)OCO3)CC1 [FIPEXIDE]	> 30 µM	> 30 µM	> 30 µM	> 30 µM	> 30 µM	11.1 µM	13.3 µM	> 30 µM	–	–	–	–	–
Cc1c(-c2ccccc2)oc2c(C(=O)OCCN3CCCCC3)cccc2c1=O [FLAVOXATE]	> 30 µM	> 30 µM	> 30 µM	> 30 µM	5.29 µM	13.9 µM	6.29 µM	> 30 µM	–	–	–	–	–
CCC(=O)c1c(O)cc(O)cc1O [FLOPROPIONE]	> 30 µM	> 30 µM	> 30 µM	22.3 µM	> 30 µM	> 30 µM	> 30 µM	> 30 µM	–	–	–	–	–
CN1CCCC(CN2c3ccccc3Sc3ccccc32)C1 (stereo not drawn) [MEPAZINE]	9.78 µM	> 30 µM	> 30 µM	21.6 µM	> 30 µM	8.25 µM	0.391 µM	–	–	–	–	–	–
CS(=O)(=O)c1ccc([C@@H](O)[C@@H](CO)NC(=O)C(Cl)Cl)cc1 [THIAMPHENICOL]	> 30 µM	–	> 30 µM	> 30 µM	> 30 µM	> 30 µM	> 30 µM	–	> 30 µM	> 30 µM	–	> 30 µM	> 30 µM
Cc1ccc(O)c2ncccc12 [TILIQUINOL]	> 30 µM	> 30 µM	> 30 µM	> 30 µM	> 30 µM	> 30 µM	> 30 µM	–	–	–	–	–	–
CC(=O)OC[C@H]1O[C@@H](n2ccc(=O)[nH]c2=O)[C@H](OC(C)=O)[C@@H]1OC(C)=O [URIDINE TRIACETATE]	> 30 µM	> 30 µM	> 30 µM	> 30 µM	> 30 µM	> 30 µM	> 30 µM	–	–	–	–	–	–

Source: ChEMBL document CHEMBL5291721, “A preclinical secondary pharmacology resource illuminates target-adverse drug reaction associations of marketed drugs” (Nat Commun, 2023)
